The target of experiment [1] is T1, hM2 receptor (CHO-K1 cells) (Homo sapiens, UniProt P08172).
T1 construct: expressed in transfected cells; host or cells: CHO-K1 cells
T1 sequence (P08172 1-466): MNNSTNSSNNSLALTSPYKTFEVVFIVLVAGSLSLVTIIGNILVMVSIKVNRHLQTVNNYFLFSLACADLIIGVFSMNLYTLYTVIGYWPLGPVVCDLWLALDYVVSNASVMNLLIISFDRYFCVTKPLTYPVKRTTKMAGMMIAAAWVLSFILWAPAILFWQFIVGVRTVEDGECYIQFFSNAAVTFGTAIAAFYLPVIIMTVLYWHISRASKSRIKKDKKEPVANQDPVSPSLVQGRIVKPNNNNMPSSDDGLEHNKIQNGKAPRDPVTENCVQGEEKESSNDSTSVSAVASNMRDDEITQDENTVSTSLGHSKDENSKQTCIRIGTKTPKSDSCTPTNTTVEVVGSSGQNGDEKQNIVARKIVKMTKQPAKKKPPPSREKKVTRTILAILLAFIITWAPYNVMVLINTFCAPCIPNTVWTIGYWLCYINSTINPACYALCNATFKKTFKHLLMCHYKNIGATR
As to the kind of experiment: Blockade of agonist-mediated inhibition of cAMP accumulation. The class given is cell-based. The note with it: CHO-K1 cells expressing the hM2 receptor; this or a similar assay; read-out: Ki value for blockade of oxotremorine-inhibition of forskolin-mediated cAMP accumulation. On the procedure:
In this assay, the functional potency of a test compound was determined by measuring the ability of the test compound to block oxotremorine-inhibition of forskolin-mediated cAMP accumulation in CHO-K1 cells expressing the hM2 receptor. cAMP assays were performed in a radioimmunoassay format using the Flashplate Adenylyl Cyclase Activation Assay System with ^125I-cAMP (NEN SMP004B, PerkinElmer Life Sciences Inc., Boston, Mass.), according to the manufacturer's instructions.
Cells were rinsed once with dPBS and lifted with Trypsin-EDTA solution (0.05% trypsin/0.53 mM EDTA) as described in the Cell Culture and Membrane Preparation section above. The detached cells were washed twice by centrifugation at 650×g for five minutes in 50 mLs dPBS. The cell pellet was then re-suspended in 10 mL dPBS, and the cells were counted with a Coulter ZI Dual Particle Counter (Beckman Coulter, Fullerton, Calif.). […]
To measure the ability of a test compound to block oxotremorine-inhibited AC activity, 25 μL forskolin and oxotremorine (25 μM and 5 μM final concentrations, respectively, diluted in dPBS) 25 μL diluted test compound, and 50 μL cells were added to remaining assay wells. […] Plates were sealed, incubated overnight at room temperature and counted the next morning on a PerkinElmer TopCount liquid scintillation counter (PerkinElmer Inc., Wellesley, Mass.). […]

In experiment [2] the target is T1, hM2 receptor (CHO-K1 cells). As to the kind of experiment: Blockade of agonist-mediated [35S]GTPγS binding. The class given is biochemical. The note with it: CHO-K1 cells expressing the hM2 receptor; this or a similar assay; read-out: Ki value for blockade of oxotremorine-stimulated [35S]GTPγS binding. Here is the method: In a second functional assay, the functional potency of test compounds can be determined by measuring the ability of the compounds to block oxotremorine-stimulated [^35S]GTPγS binding in CHO-K1 cells expressing the hM2 receptor.
At the time of use, frozen membranes were thawed and then diluted in assay buffer with a final target tissue concentration of 5-10 μg protein per well. The membranes were briefly homogenized using a Polytron PT-2100 tissue disrupter and then added to the assay plates. The EC90 value (effective concentration for 90% maximal response) for stimulation of [^35S]GTPγS binding by the agonist oxotremorine was determined in each experiment.
The assay plates were then incubated at 37° C. for 60 minutes. The assay plates were filtered over 1% BSA-pretreated GF/B filters using a PerkinElmer 96-well harvester. The plates were rinsed with ice-cold wash buffer for 3×3 seconds and then air or vacuum dried. Microscint-20 scintillation liquid (50 μL) was added to each well, and each plate was sealed and radioactivity counted on a topcounter (PerkinElmer). Data were analyzed by nonlinear regression analysis with the GraphPad Prism Software package (GraphPad Software, Inc., San Diego, Calif.) using the non-linear regression, one-site competition equation. […]

These results are taken from US20060205949A1, “Crystalline forms of a biphenyl compound” (THERAVANCE, INC., priority 2005, published 2006).

pKi: −log10 of the molar value.

For `O=C(CCN1CCC(OC(=O)Nc2ccccc2-c2ccccc2)CC1)NCCCCCNCc1ccc(O)cc1` [compound of formula I, biphenyl-2-ylcarbamic acid 1-{2-[5-(4-hydroxybenzylamino)pentylcarbamoyl]ethyl}piperidin-4-yl ester], the pKi in experiment [1] and in experiment [2] was over 8.00 each time.
